Measurements as given in patent US20230416245A1, “ADENOSINE ANALOGS FOR THE TREATMENT OF DISEASE” (BIOINTERVENE, INC., priority 2020, published 2023).

How the values were obtained:
ADORA3 = ADORA3 (Homo sapiens (Human), UniProt P0DMS8); test: Intracellular calcium release assay (FLIPR); type: cell-based; details: for EC50: CHO-K1 cells, Fluo-4, top concentration 10 μM, read-out: Cell Calcium Assay EC50; for Cell Calcium Efficacy (%): percentage of the response to NECA
Method: Example 32: Intracellular Calcium Release Assay
Cell Culture: The table below lists the cell lines used that stably express the 4 subtypes of adenosine receptors, along with the growth medium used for each:
For experiments with the ADORA1- and ADORA3-expressing cells, the medium was aspirated and the cells washed twice with 10 mL DPBS. Two mL of trypsin was added and incubated at 37° C. for 1 minute. Then 10 mL of platting media was added to terminate the digestion and 1 mL of the solution was taken out for cell counting. ADORA2A- and ADORA2B-expressing cells were thawed rapidly in a 37° C. water bath. Cell suspensions were transferred to 50 mL conical tubes. Plating media was added to the 10 mL mark and then 1 mL taken out for cell counting. The 50 mL tubes containing the various types of cells were centrifuged at 1000 g. Then the supernatants were aspirated, being careful not to aspirate the cells. The cell pellets were resuspended in 3-5 mL platting media, then 0.5 mL was taken out for cell counting. Then the cell suspension was diluted to 1×10^6 cells/mL (20,000 cells per 20 μL per well) in platting medium, and cells were seeded into 384-well cell plates (Greiner-781946). The 384-well cell plate was placed in a 37° C./5% CO2 incubator (Thermo-371, Thermo Scientific) for 16-20 hours.
Preparation of the intracellular calcium imaging agent (Fluo-4 Direct™ Calcium Assay Kit, Invitrogen-F10471, Thermo Scientific): One mL of FLIPR Assay Buffer was added to 77 mg probenecid to make a 250 mM solution, which was used fresh for each day. One vial of Fluo-4 Direct™ crystals was thawed and 10 mL of FLIPR Assay Buffer was added to the vial. 0.2 mL of probenecid was added to each 10 mL vial of Fluo-Direct™ solution, such that the final assay concentration was 2.5 mM. It was vortexed, left to stand >5 min and protected from light. The dye was prepared fresh each day.
Compound Preparation: Compound plates were prepared as follows. First, the test compound was diluted to prepare a 2 mM solution and then 10-point 3-fold serial dilutions were made using ECHO (ECHO 555, LabCyte), then 900 nL was transferred to the compound plate. For all targets, the final top concentration of the test compound was […]. For agonist reference compounds, 10-point and 3-fold serial dilutions were made, then 900 nL was transferred to the assay plate. Then 30 μL of assay buffer was added to the compound plate and then the plate was centrifuged at 1000 rpm for 1 min.
FLIPR Assay: Cell plates were removed from the incubator, to which were added 20 μL 2×Fluo-4 Direct™ solution, then the plates were reincubated in a 5% CO2, 37° C. incubator for 50 min and at RT for 10 min. To run the protocol on the Fluorescent Imaging Plate Reader (FLIPR) TETRA (MD-FT0249, Molecular Devices, Inc.), 10 μL of assay buffer was transferred from the 384-well plate (Greiner-781280) to the cell plates and then the fluorescence signal was read. Then 10 μL of compound solution was transferred from the compound plate to the cell plates and the fluorescence signal was read. The “Max-Min” was calculated, starting from Read 91 to the maximum allowed. For agonists, activation %=(RLU−LC)/(HC−LC)*100, based on the following: RLU=relative light unit, 91 to maximum allowed signal; HC=average signal of the high concentration of agonist; LC=average signal of DMSO well. The data were fitted using GraphPad Prism 5, using the model “log(agonist) vs. response—Variable slope” to determine the EC50 value. The receptor efficacy of the test compound relative to the agonist NECA was calculated as a percentage (%) of the response to […]. Table 10 includes EC50 values for compounds described herein.

[1] = target: human adenosine A3 receptor (Homo sapiens (Human), UniProt P0DMS8); test: Adenosine receptor binding assay ([125I]-AB-MECA competition); details: inhibition of 0.15 nM [125I]-AB-MECA binding, membranes of cells expressing human A3 receptor; read-out: hA3 Ki: Ki
Chain of human adenosine A3 receptor (P0DMS8 whole entry): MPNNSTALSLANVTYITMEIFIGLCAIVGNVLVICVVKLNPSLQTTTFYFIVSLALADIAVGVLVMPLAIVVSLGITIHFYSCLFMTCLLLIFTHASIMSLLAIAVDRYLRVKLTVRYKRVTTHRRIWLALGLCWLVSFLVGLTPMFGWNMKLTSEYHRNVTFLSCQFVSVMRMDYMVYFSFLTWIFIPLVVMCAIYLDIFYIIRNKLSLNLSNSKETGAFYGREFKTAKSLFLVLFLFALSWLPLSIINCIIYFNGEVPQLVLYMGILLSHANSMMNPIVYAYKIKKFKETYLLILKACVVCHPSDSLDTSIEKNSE
Description: Example 30: Adenosine Receptor Binding Assay
Materials and Reference Compounds: [^125I]-AB-MECA and [^3H]CCPA are both obtained from Amersham Biosciences (Little Chalfont, UK). IB-MECA are obtained from Tocris (Bristol, UK) and N6-cyclopentyl adenosine (CPA) is obtained from Sigma-Alrich (Poole, UK). Cell culture media, G418 and hygromycin are obtained from Invitrogen (Paisley, UK). Fetal calf serum is obtained from Perbio Science (Cheshire, UK). All other reagents are obtained from Fisher Chemicals (Loughborough, UK).
The method followed is that of Yates L, Clark J H, Martin T J, James S, Broadley K J, Kidd E J. Radioligand binding and functional responses of ligands for human recombinant adenosine A3 receptors. Auton Autacoid Pharmacol. 2006; 26(2):191-200. Cells stably transfected with the human adenosine A3 or A1 receptor are grown in Dulbecco's modified Eagles medium with nutrient mixture F12 containing NaHCO3 and Glutamax. Media is supplemented with 10% fetal calf serum, geneticin (G418; 0.67 mg/mL), hygromycin (500 μg/mL) and adenosine deaminase (1 U/mL). Cells are maintained at 37° C. with 5% CO2 in air. Cells are harvested and homogenized in ice-cold Tris buffer [50 mM Tris, 150 mM NaCl, 1 mM ethylenediaminetetraacetic acid (EDTA), pH 7.4] supplemented with the peptidase inhibitors, 4-(2-aminoethyl)benzenesulfonylfluoride (1 mM) and bacitracin (0.1 mg/mL), using a Polytron homogenizer (3×10 s bursts). The homogenate was spun for 10 min (4° C.) at 500 g. The supernatant is retained and the pellet is re-suspended in the buffer, homogenized and spun as above. The combined supernatants are centrifuged for 15 min (4° C.) at 48,000 g. The resultant pellet is re-suspended in the buffer and centrifuged for a second time at 48,000 g. The membrane pellet is then suspended in Tris buffer containing no peptidase inhibitors or adenosine deaminase and stored at −80° C. at a protein concentration of 1 mg/mL.
Binding Assays: Radioligand-binding assays were performed using the adenosine A3 receptor agonist [^125I]-AB-MECA and the A1 receptor agonist [^3H]CCPA. Binding assays were conducted in a total volume of 100 μL containing a 50 mM Tris, pH 7.4 buffer with or without 10 mM MgCl2, 20 μg membranes and either 0.15 nM [^125I]-AB-MECA (for the A3 receptor) or 1 nM [^3H]CCPA (for the A1 receptor). Assays were conducted at room temperature for 60 min (A1 receptor) or 120 min (A3 receptor) and terminated by the addition of 2 ml of ice-cold wash buffer (50 mM Tris, pH 7.4 with or without 10 mM MgCl2) and rapid filtration over 0.03% polyethylenimine-treated Whatman GF/C filters using a Brandel cell harvester (Semat International Ltd., St Albans, UK). Filters were then washed three times with 2 ml of ice-cold buffer. The filter-bound radioactivity were counted using a Compugamma counter (LKB Wallac, Turku, Finland). Competition experiments were performed to investigate the ability of reference compounds and embodiments of the invention to inhibit [^125I]-AB-MECA binding. Non-specific binding were determined using the respective compound at its highest concentration.
Data Analysis: The Kd and Bmax values for binding data were calculated based upon the molar amounts of bound and free [^125I]-AB-MECA. […] IC50 and Ki values and Hill slopes for inhibition of the radioligand binding by the compounds of the invention were calculated from the ligand competition curves using the Excel spreadsheet and the Kd value calculated for either [^125I]-AB-MECA or [^3H]CCPA. The results were expressed as a percent of control specific binding and as a percent inhibition of control specific binding obtained in the presence of the compounds of the invention. The IC50 values (concentration causing a half-maximal inhibition of control specific binding) and Hill coefficients (nH) were determined by non-linear regression analysis of the competition curves generated with mean replicate values using Hill equation curve fitting: […]

Chain of ADORA3 (P0DMS8 whole entry): as above

Structure (SMILES)	EC50 (ADORA3) [nM]	Cell Calcium Efficacy (%) (ADORA3)	Ki [1] [nM]
O[C@@H]1[C@H](O)[C@@H]2C[C@@H]2[C@H]1n1cnc2c(NC3CCC3)cc(Cl)nc21 [Compound 44, (1R,2R,3S,4R,5S)-4-(5-chloro-7-(cyclobutylamino)-3H-imidazo[4,5-b]pyridin-3-yl)bicyclo[3.1.0]hexane-2,3-diol]	23.1	52	28.4
O[C@@H]1[C@H](O)[C@@H]2C[C@@H]2[C@H]1n1cnc2c(NCc3cc(F)ccc3F)cc(Cl)nc21 [Compound 45, (1R,2R,3S,4R,5S)-4-(5-chloro-7-((2,5-difluorobenzyl)amino)-3H-imidazo[4,5-b]pyridin-3-yl)bicyclo[3.1.0]hexane-2,3-diol]	29.5	22.5	1.3
O[C@@H]1[C@H](O)[C@@H]2C[C@@H]2[C@H]1n1cnc2c(NCC(F)F)c(F)c(Cl)nc21 [Compound 61, (1R,2R,3S,4R,5S)-4-(5-chloro-7-((2,2-difluoroethyl)amino)-6-fluoro-3H-imidazo[4,5-b]pyridin-3-yl)bicyclo[3.1.0]hexane-2,3-diol]	60	67.3	7.15
CNC(=O)[C@@]12C[C@@H]1[C@@H](n1cnc3c(NCC(F)F)cc(Cl)nc31)[C@H](O)[C@@H]2O [Compound 82]	1.9	106	4.77

Now from value to molecule:

EC50 (ADORA3) [nM]	Cell Calcium Efficacy (%) (ADORA3)	Ki [1] [nM]	Structure (SMILES)
–	–	1.62	CNC(=O)[C@@]12C[C@@H]1[C@@H](n1cnc3c(NCC(C)C)cc(Cl)nc31)[C@H](O)[C@@H]2O [Compound 83, (1S,2R,3S,4R,5S)-4-(5-chloro-7-(isobutylamino)-3H-imidazo[4,5-b]pyridin-3-yl)-2,3-dihydroxy-N-methylbicyclo[3.1.0]hexane-1-carboxamide]
–	–	2.42	CNC(=O)[C@@]12C[C@@H]1[C@@H](n1cnc3c(N)cc(Cl)nc31)[C@H](O)[C@@H]2O [Compound 90, (1S,2R,3S,4R,5S)-4-(7-amino-5-chloro-3H-imidazo[4,5-b]pyridin-3-yl)-2,3-dihydroxy-N-methylbicyclo[3.1.0]hexane-1-carboxamide]
–	–	5.1	CNC(=O)[C@@]12C[C@@H]1[C@@H](n1cnc3c(NCCO)cc(Cl)nc31)[C@H](O)[C@@H]2O [Compound 91, (1S,2R,3S,4R,5S)-4-(5-chloro-7-((2-hydroxyethyl)amino)-3H-imidazo[4,5-b]pyridin-3-yl)-2,3-dihydroxy-N-methylbicyclo[3.1.0]hexane-1-carboxamide]
–	–	26.8	Nc1c(OCc2cccc(Cl)c2)c(Cl)nc2c1ncn2[C@H]1[C@H](O)[C@H](O)[C@@H]2C[C@@H]21 [Compound 92, (1R,2R,3S,4R,5S)-4-(7-amino-5-chloro-6-((3-chlorobenzyl)oxy)-3H-imidazo[4,5-b]pyridin-3-yl)bicyclo[3.1.0]hexane-2,3-diol]
